How the values were obtained:
UBE2N C87S mutant = molecular target: T1, UBE2N C87S mutant (Homo sapiens, UniProt P61088, C87S); assay: Linear mass spectrometry (MALDI-TOF) analysis of drug binding; details: MALDI-TOF-MS
T1 construct: purchased Genescript
Protocol: (§1) Recombinant UBE2N (2 .tg; Life sensors #UB218) in 3 .tl of buffer containing 20 mM Tris-HCl pH 7.4, 10 mM DTT, 10% glycerol, 150 mM NaCl and 0.02% DMSO as well as six samples of 1 .tg UBE2N mixed with 0.2 .tg of UC-764864 or UC-764865 were diluted to 50 ng/uL in 0.1% formic acid (FA) in preparation of MALDI-TOF analysis. Two .tl aliquots from the samples were used to make a 1:5 dilution with MALDI matrix (5 mg/mL sinapic acid in 60% ACN/0.1% formic acid) with 1 .tL spotted onto the target plate for analysis. For UBE2N C87S mutant, recombinant protein was purchased from Genescript. 2 micrograms of protein as well as 3 samples of UBE2N C87S were mixed with 0.4 micrograms of UC-764864 and UC-764865 in 10 microliters of buffer containing 20 mM Tris HCl pH 7.4, 1 mM DTT, 150 mM NaCl and ˜0.01% of DMSO in each sample. All mixtures were brought up to 40 ul by adding 30 ul of 0.1% formic acid (FA). 5 ul aliquots from the samples were used to make a 1:5 dilution with MALDI matrix as described above. All spectra were acquired in Linear Positive Ion Mode on an ABSciex 4800 MALDI-TOF/TOF instrument, with E. coli thioredoxin (11,674.5; MH+ avg) and horse muscle apomyoglobin (15,952.6; MH+ avg) as mass calibration standards. For DSF, all proteins (UBE2N wild type and UBE2N C87S) were used at a final concentration of 5 .tM. SYPRO Orange (Invitrogen 56651, Carlsbad, Calif.) was used at a final concentration of 10× for UBE2N wild type and UBE2N C87S. Experiments were carried out in 20 mM Tris-HCl pH 8, 150 mM NaCl, 1 mM TCEP, and 10% DMSO. UC-764865 was mixed with the proteins at increasing concentrations, each sample was divided into three 25 .tl replicates in 48-well optical plates (Thermo Fisher Scientific 4375816, Waltham, Mass.) and the plate was sealed with optical PCR plate sheet (Thermo Fisher Scientific 4375928). All experiments were performed on a StepOne Real-Time PCR System (Applied Biosystems 4376357, Foster City, Calif.). The temperature was raised in 1° C. increments from 25° C. to 95° C. and fluorescence was measured at 530 nm. Derivative Tm was determined using Protein Thermal Shift Software version 1.3 by Applied Biosystems and then were analyzed with Prism 6 (GraphPad Software Inc.).

UBE2N wild type = molecular target: T2, UBE2N wild type (Homo sapiens, UniProt P61088); assay: as above; details: MALDI-TOF-MS, incubated with compound
T2 construct: purchased Life sensors UB218
T2 sequence (P61088 1-152): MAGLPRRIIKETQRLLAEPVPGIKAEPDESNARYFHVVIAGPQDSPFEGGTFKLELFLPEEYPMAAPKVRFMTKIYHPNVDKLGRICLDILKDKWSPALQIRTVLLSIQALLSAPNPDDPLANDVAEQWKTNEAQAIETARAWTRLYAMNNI
Protocol: as §1

[1] = test system: THP1-Blue NF-κB reporter cells; assay: NF-κB activation assay; type: cell-based, human; details: for UBE2N-dependent activation of NF-κB, reporter screen: top 14 small molecules
Protocol: THP1-Blue NF-κB reporter cells (Invivogen) were diluted to 100,000 cells/mL and stimulated with 1 μg/mL IL1β, 100 ng/ml Pam3CSK4 or 1 μ/m LPS. The cells were subsequently seeded into a 96 well plate at 20,000 cells per well (200 μl) and introduced to drugs in an increasing concentration. The plates were incubated at 37 C, 5% CO2 for 24 hours. The following day, QuantiBlue Reagent was warmed to 37 C in a water bath and 180 μl was added to each well of a separate, clean 96 well plate. The incubated cells were spun down, and the supernatant was taken for the assay. To perform the assay, 20 μl of supernatant from each well was pipetted into the respective 180 μl QuantiBlue Reagent well, in triplicate. The reaction was mixed and incubated for 1 to 4 hours, when a color gradient could be seen. The absorbance was read at 630 nm for a final readout.

MOLM-13 = assay: Cell proliferation MTS assay / cytotoxicity screen; type: cell-based, human; details: for cytotoxicity screen in MOLM-13 cells: 2nd screen at 2 μM, 24 hr MTS
Protocol: AML cell lines (5×10^3 cells/well) were seeded in 96-well plates and grown for 24 to 96 h in serum (10%)-containing medium in the presence or absence of inhibitors at the indicated concentrations. Proliferation was analyzed by means of an MTS assay using the CellTiter 96 Aqueous One Solution Cell Proliferation Assay (Promega, Madison, Wis., USA), according to the manufacturer's instructions. Data are mean with standard deviation from three independent experiments in technical triplicates. For the screening of 160 compounds from the UC library, the cell metabolic activity was assessed at 24 hours of treatment of MOLM-13 cells. Top 15 candidates were re-screened at 2 μM, and the cell metabolic activity was determined at 24 hours of treatment. In certain experiments, cell viability was determined by staining the cells with trypan blue at a 1/2 dilution and counting total number of viable cells upon treatment with UC-764864 or DMSO control. The cells were counted daily for 4 days using an automated cell counter (Countess II FL from Life Technologies). The cell proliferation in primary AMLs in FIG. 9E was performed as follows: 50,000 cells were plated in duplicate in a 96 well plate in IMDM containing 20% heat inactivated FBS plus 10 ng/ml of each SCF, IL3, IL6, TPO, and FLT3. UC-764864 was added at the indicated concentrations and cells were incubated with drug for 3 days, at which point cell viability was measured by MTS according to manufacturer's instructions.

Plasma stability = type: in vitro ADME; design: half-life: dose or concentration left out as unconfirmed; details: C57/Bl6 plasma, concentration 1 (mM), K2EDTA; for half-life: mouse, read-out: Plasma Stability T ½

T1 sequence (P61088 whole entry C87S): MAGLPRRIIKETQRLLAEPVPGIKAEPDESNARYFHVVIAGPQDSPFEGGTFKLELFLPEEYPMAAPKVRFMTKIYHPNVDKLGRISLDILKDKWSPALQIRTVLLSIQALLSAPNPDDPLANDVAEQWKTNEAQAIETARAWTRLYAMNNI

| Compound | binding to recombinant UBE2N(C87S) (mass shift) (UBE2N C87S mutant) | mass shift of wild-type UBE2N protein (UBE2N wild type) [Da] | UBE2N-mediated NF-κB activity downstream of IL1R, TLR2, TLR4 ([1]; increasing concentrations, concentration dependent, equal potency) | UBE2N-dependent activation of NF-κB, reporter screen [1] | cytotoxicity screen in MOLM-13 cells (MOLM-13) | IC50 (MOLM-13; Homo sapiens, MOLM-13, MTS, 24 hours) [nM] | Plasma Stability % Remaning at T60 (Plasma stability) [%] | half-life (Plasma stability) [min] |
| --- | --- | --- | --- | --- | --- | --- | --- | --- |
| CCc1ccc(C(=O)C=CSc2nc3ccc(C)cc3[nH]2)cc1 [UC-764864, 1-(4-ethylphenyl)-3-[(6-methyl-1H-benzimidazol-2-yl)sulfanyl]prop-2-en-1-one] | does not bind | 160 | inhibited UBE2N-mediated NF-κB activity | inhibition of UBE2N-dependent signaling | cytotoxic effects | 1900 | 21.4 | 31.8 |
| COc1ccc(C(=O)C=CSc2nc3ccc(C)cc3[nH]2)cc1 [UC-764865, 1-(4-methoxyphenyl)-3-[(6-methyl-1H-benzimidazol-2-yl)sulfanyl]prop-2-en-1-one] | does not bind | 160 |  | inhibition of UBE2N-dependent signaling | cytotoxic effects |  | 39.6 | 53.6 |
